The values that follow come from PMC9482650, “Quantitative fragmentomics allow affinity mapping of interactomes” (Nature Communications, 2022).

Ends that are not written are not given here.

Holding throughout (assay): Holdup assay
Common to all, as to type: binding

One assay addresses HTRA1 PDZ (Homo sapiens, UniProt Q92743). To be noted: composite holdup affinity; 0.00=below quantification threshold; read-out: COMP pKd (converted).
Another assay addresses MAGI2_6 PDZ (Homo sapiens, UniProt Q86UL8). Conditions: composite holdup affinity; 0.00=below quantification threshold; read-out: COMP pKd (converted).
A further assay addresses SHANK1 PDZ (Homo sapiens, UniProt Q9Y566). To be noted: composite holdup affinity; 0.00=below quantification threshold; read-out: COMP pKd (converted).
In the next assay the target is GRASP PDZ (Homo sapiens, UniProt Q7Z6J2). Conditions: composite holdup affinity; 0.00=below quantification threshold; read-out: COMP pKd (converted).
Sequence of GRASP PDZ (Q7Z6J2 101-190 limits assumed): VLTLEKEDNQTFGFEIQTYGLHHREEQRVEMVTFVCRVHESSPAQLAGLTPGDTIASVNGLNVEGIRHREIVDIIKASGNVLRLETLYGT
For a further assay, the target named is Inadl_8 PDZ (Homo sapiens, UniProt Q8NI35). Conditions: composite holdup affinity; 0.00=below quantification threshold; read-out: COMP pKd (converted).
Sequence of Inadl_8 PDZ (Q8NI35 1437-1520 limits assumed): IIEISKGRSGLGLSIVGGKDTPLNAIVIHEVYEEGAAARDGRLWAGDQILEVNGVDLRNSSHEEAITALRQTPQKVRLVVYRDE
The target of the next assay is Inadl_3 PDZ (Homo sapiens, UniProt Q8NI35). Conditions: composite holdup affinity; 0.00=below quantification threshold; read-out: COMP pKd (converted).
Sequence of Inadl_3 PDZ (Q8NI35 365-453 limits assumed): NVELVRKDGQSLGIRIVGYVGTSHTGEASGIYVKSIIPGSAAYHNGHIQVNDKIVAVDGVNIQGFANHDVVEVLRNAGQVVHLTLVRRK
The target in a further assay is GRIP2_6 PDZ (Homo sapiens, UniProt Q9C0E4). To be noted: composite holdup affinity; 0.00=below quantification threshold; read-out: COMP pKd (converted).
Sequence of GRIP2_6 PDZ (Q9C0E4 656-738 limits assumed): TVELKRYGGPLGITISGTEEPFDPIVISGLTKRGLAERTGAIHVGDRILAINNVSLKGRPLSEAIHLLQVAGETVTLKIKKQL
The next assay has as its target LIN7A PDZ (Homo sapiens, UniProt O14910). To be noted: composite holdup affinity; 0.00=below quantification threshold; read-out: COMP pKd (converted).
The target in a further assay is GRIP2_5 PDZ (Homo sapiens, UniProt Q9C0E4). Conditions: composite holdup affinity; 0.00=below quantification threshold; read-out: COMP pKd (converted).
Sequence of GRIP2_5 PDZ (Q9C0E4 557-641 limits assumed): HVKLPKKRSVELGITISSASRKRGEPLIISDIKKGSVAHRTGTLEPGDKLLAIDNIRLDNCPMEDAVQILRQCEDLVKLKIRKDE
The target in a further assay is LIMK2 PDZ (Homo sapiens, UniProt P53671). Conditions: composite holdup affinity; 0.00=below quantification threshold; read-out: COMP pKd (converted).
Sequence of LIMK2 PDZ (P53671 152-239 limits assumed): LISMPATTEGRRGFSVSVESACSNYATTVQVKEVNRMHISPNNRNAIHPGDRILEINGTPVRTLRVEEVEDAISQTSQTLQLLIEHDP
The target of the next assay is MAGI1_5 PDZ (Homo sapiens, UniProt Q96QZ7). To be noted: sheet PPI_convert; read-out: affinity to PDZ MAGI1_5 (converted).
Sequence of MAGI1_5 PDZ (Q96QZ7 970-1066 limits assumed): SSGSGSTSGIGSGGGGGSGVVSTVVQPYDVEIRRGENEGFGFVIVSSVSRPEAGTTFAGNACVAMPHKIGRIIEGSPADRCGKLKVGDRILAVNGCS
For the next assay, the target named is MAGI1_6 PDZ (Homo sapiens, UniProt Q96QZ7). To be noted: sheet PPI_convert; read-out: affinity to PDZ MAGI1_6 (converted).
Sequence of MAGI1_6 PDZ (Q96QZ7 1124-1206 limits assumed): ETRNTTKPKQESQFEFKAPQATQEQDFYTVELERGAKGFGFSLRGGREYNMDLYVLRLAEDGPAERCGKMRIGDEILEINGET
A further assay deals with RADIL PDZ (Homo sapiens, UniProt Q96JH8). Conditions: composite holdup affinity; 0.00=below quantification threshold; read-out: COMP pKd (converted).
Sequence of RADIL PDZ (Q96JH8 976-1061 limits assumed): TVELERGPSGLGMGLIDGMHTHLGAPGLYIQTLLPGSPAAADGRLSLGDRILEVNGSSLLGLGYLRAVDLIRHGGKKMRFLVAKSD
The next assay concerns the target CARD14 PDZ (Homo sapiens, UniProt Q9BXL6). To be noted: sheet PPI_convert; read-out: affinity to PDZ CARD14 (converted).
The next assay concerns the target CNKSR1 PDZ (Homo sapiens, UniProt Q969H4). To be noted: sheet PPI_convert; read-out: affinity to PDZ CNKSR1 (converted). From the text: Supplement 41467_2022_33018_MOESM4_ESM.xlsx, sheet "PPI_convert" | column: CNKSR1
A further assay addresses DVL1 PDZ (Homo sapiens, UniProt O14640). Conditions: sheet PPI_convert; read-out: affinity to PDZ DVL1 (converted).
Another assay concerns the target DVL2 PDZ (Homo sapiens, UniProt O14641). To be noted: sheet PPI_convert; read-out: affinity to PDZ DVL2 (converted).
In another assay the target is PDZRN3_2 PDZ (Homo sapiens, UniProt Q9UPQ7). Conditions: sheet PPI_convert; read-out: affinity to PDZ PDZRN3_2 (converted).
Sequence of PDZRN3_2 PDZ (Q9UPQ7 419-503 limits assumed): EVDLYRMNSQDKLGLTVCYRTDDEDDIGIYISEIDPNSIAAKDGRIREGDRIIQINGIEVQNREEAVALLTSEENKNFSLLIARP

Sequence of DVL1 PDZ (O14640 251-323 limits assumed): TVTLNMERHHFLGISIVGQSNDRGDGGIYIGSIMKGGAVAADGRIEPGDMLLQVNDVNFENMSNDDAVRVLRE
Sequence of CARD14 PDZ (Q9BXL6 568-658 limits assumed): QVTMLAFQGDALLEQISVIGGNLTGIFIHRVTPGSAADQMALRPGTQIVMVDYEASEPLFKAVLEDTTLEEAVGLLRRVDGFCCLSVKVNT
Sequence of LIN7A PDZ (O14910 108-190 limits assumed): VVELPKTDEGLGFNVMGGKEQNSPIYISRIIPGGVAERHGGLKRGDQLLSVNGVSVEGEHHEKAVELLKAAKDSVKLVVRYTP
Sequence of MAGI2_6 PDZ (Q86UL8 1147-1229 limits assumed): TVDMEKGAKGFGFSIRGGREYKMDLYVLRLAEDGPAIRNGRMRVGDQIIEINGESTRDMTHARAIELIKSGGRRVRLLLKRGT
Sequence of SHANK1 PDZ (Q9Y566 663-757 limits assumed): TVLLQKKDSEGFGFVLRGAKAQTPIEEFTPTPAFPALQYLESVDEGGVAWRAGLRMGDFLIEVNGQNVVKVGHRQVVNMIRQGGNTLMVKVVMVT
Sequence of DVL2 PDZ (O14641 267-339 limits assumed): as the sequence (O14640 251-323 limits assumed) above, with R8K, H9Y, H10N, D22E, V57M, E73D counted along it
Sequence of CNKSR1 PDZ (Q969H4 196-285 limits assumed): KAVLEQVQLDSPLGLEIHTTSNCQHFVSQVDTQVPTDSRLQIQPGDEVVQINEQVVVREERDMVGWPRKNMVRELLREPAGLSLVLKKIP
Sequence of HTRA1 PDZ (Q92743 365-467 limits assumed): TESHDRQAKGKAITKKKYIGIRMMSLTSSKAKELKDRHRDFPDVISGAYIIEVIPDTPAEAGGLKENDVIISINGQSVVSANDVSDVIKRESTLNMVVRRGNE

As for RHTTSTETAV [HPV30-E6], the Kd at HTRA1 PDZ is 186 µM; at MAGI2_6 PDZ, 64.6 µM; on SHANK1 PDZ it was 186 µM; on GRASP PDZ, 110 µM; on Inadl_8 PDZ, 115 µM; on Inadl_3 PDZ, 170 µM. Besides, the Kd at GRIP2_6 PDZ is 170 µM; on LIN7A PDZ, 158 µM; on GRIP2_5 PDZ, 178 µM; on LIMK2 PDZ it was 141 µM; at MAGI1_5 PDZ, 9.55 µM; on MAGI1_6 PDZ it was 18.6 µM.

Regarding RTRQRNETQV [HPV51-E6], the Kd at RADIL PDZ is 151 µM; at CARD14 PDZ it was 45.7 µM; on CNKSR1 PDZ it was 36.3 µM; on DVL1 PDZ, 13.8 µM; at DVL2 PDZ, 25.7 µM; on PDZRN3_2 PDZ, 69.2 µM.
